Assay: mn = molality of the nth substance listed, in mol/kg
Conditions: Liquid, Capillary tube (Ostwald / Ubbelohde) method

O=S(=O)([O-])[O-].[Li+].[Li+] [lithium sulfate] + O
viscosity [mPa·s]
Conditions | 10000 kPa | 20000 kPa | 30000 kPa
485.13 K, m1 = 0.885 | – | – | 0.1871
485.17 K, m1 = 0.28 | 0.1424 | 0.1452 | 0.1475
490.35 K, m1 = 0.1 | 0.1297 | 0.1322 | 0.1354
490.76 K, m1 = 0.56 | 0.1538 | 0.1567 | 0.1595
492.49 K, m1 = 0.885 | 0.1725 | 0.1761 | 0.179
495.14 K, m1 = 0.28 | 0.1352 | 0.1377 | 0.14
500.43 K, m1 = 0.885 | 0.1653 | 0.1688 | 0.1722
501.3 K, m1 = 0.1 | 0.1228 | 0.125 | 0.1275
509.17 K, m1 = 0.885 | 0.158 | 0.1614 | 0.1649
510.12 K, m1 = 0.56 | 0.1391 | 0.142 | 0.1455
510.93 K, m1 = 0.1 | 0.1172 | 0.1199 | 0.1235
515.27 K, m1 = 0.28 | 0.1224 | 0.1247 | 0.1271
517.75 K, m1 = 0.885 | 0.1513 | 0.155 | 0.1586
521.75 K, m1 = 0.1 | 0.1115 | 0.1143 | 0.117
522.75 K, m1 = 0.56 | 0.1308 | 0.1341 | 0.1373
525.95 K, m1 = 0.28 | 0.1166 | 0.1196 | 0.1225
526.12 K, m1 = 0.885 | 0.1453 | 0.1491 | 0.1527
530.53 K, m1 = 0.1 | 0.1072 | 0.1097 | 0.1122
532.85 K, m1 = 0.56 | 0.125 | 0.1281 | 0.131
538.24 K, m1 = 0.885 | 0.1372 | 0.1408 | 0.1443
540.08 K, m1 = 0.28 | 0.1096 | 0.1125 | 0.1156
541.04 K, m1 = 0.1 | 0.1024 | 0.1052 | 0.1087
547.35 K, m1 = 0.1 | 0.0998 | 0.1027 | 0.1055
550.72 K, m1 = 0.885 | 0.1297 | 0.1335 | 0.1372
551.24 K, m1 = 0.56 | 0.1151 | 0.1184 | 0.1214
560.12 K, m1 = 0.28 | 0.1011 | 0.104 | 0.1075
560.18 K, m1 = 0.885 | 0.1246 | 0.1282 | 0.1318
560.43 K, m1 = 0.1 | 0.0948 | 0.0977 | 0.0999
560.72 K, m1 = 0.56 | 0.1106 | 0.1132 | 0.115
569.15 K, m1 = 0.1 | 0.0917 | 0.0945 | 0.0977
572.05 K, m1 = 0.56 | 0.1056 | 0.1092 | 0.1126
573.45 K, m1 = 0.28 | 0.0962 | 0.0995 | 0.1025
574.55 K, m1 = 0.885 | 0.1176 | 0.1217 | 0.1255
574.75 K, m1 = 0.1 | 0.0897 | 0.0928 | 0.0957
